These results are taken from publication PMC8785525 (Malaria Journal, 2022).

SMILES strings stand for the structures. In brackets after ≈: the same amount, converted by molar mass. Where two headings read alike, the source gives them in different places.

For data set [1], the system named is P. falciparum Dd2. In words: In vitro anti-malarial activity, SYBR-Green I fluorescence assay, strain Dd2. The data set is classed as cell-based. Particulars: Plasmodium falciparum, DD2, Erythrocyte, 72 h, read-out: Inhibition IC50 mean ± SD. As to the method:
(§1) In the in vitro anti-malarial bioassay, strains of P. falciparum (chloroquine sensitive 3D7 and multidrug resistant Dd2) were kept in continuous culture in human erythrocytes in RPMI 1640 medium supplemented with 0.5% Albumax I/II and […] hypoxanthine according to the method previously described by Trager and Jensen. Synchronization of parasites was conducted using sorbitol treatment and parasitaemia was microscopically determined in Giemsa-stained smears.
(§2) In vitro anti-malarial activity assay was performed as previously described. Chloroquine and artemisinin were used as standard anti-malarial drugs, and equivalent free DQ used as a control and dissolved in dimethylsulfoxide (DMSO). Liposomes were diluted into a series of 10 µl different DQ concentrations for the in vitro assay. Each sample (10 µl) was mixed with 90 µl culture medium containing P. falciparum (0.5% parasitaemia and 2% haematocrit) and placed in 96-well microplates, which were incubated for 72 h with 5% CO2 at 37 °C. Lysis buffer (100 µl) containing 0.2 µl SYBR- Green I was then added to each well of the plate and incubated for additional 1.5 h at 37 °C. Fluorescence signal was detected at 488 nm (excitation) and 520 nm (emission) in a microplate reader (Synerfy H1, Bio Tek, USA). The intensity of fluorescence generated by the binding of SYBR-Green I to Plasmodium DNA is relative to the growth of parasites. IC50 values were derived from dose–response curves evaluated with software GraphPad.

Data set [2] concerns P. falciparum 3D7. The data set is described as follows: In vitro anti-malarial activity, SYBR-Green I fluorescence assay, strain 3D7. The data set is classed as cell-based. The following applies: Plasmodium falciparum, 3D7, Erythrocyte, 72 h, read-out: Inhibition IC50 mean ± SD. How it is done: as §1, §2
On the set-up of data set [3]: method as in PMID 21914160. Particulars: cited from earlier work.
The test system of data set [4] is Plasmodium parasites. Further details: method as in PMID 28491482. The following applies: cited from earlier work.
The mark [5] stands for this setting: infected human red blood cells, DQ concentration for liposomes.

A word on the IC50: it is the concentration that inhibits the measured activity by half. Take `C[C@@H]1CC[C@H]2[C@@H](C)C(=O)O[C@@H]3O[C@@]4(C)CC[C@@H]1[C@]32OO4` [Artemisinin]: the IC50 in data set [1] (setting [5]) was determined as 18.5 ± 0.5 nM; in data set [2] (setting [5]), 16.4 ± 5.8 nM.

For `CCN(CC)CCCC(C)Nc1ccnc2cc(Cl)ccc12` (stereo not drawn) [Chloroquine], the half-inhibitory concentration (IC50) in data set [1] was 185 ± 16.2 nM; in data set [2] it was 23.75 ± 0.06 nM.

The half-life is the time needed for the level to fall by half in the phase considered. For `C[C@H]1[C@@H](O)O[C@@H]2O[C@@]3(C)CC[C@H]4[C@H](C)CC[C@@H]1[C@@]24OO3` [DHA, dihydro-artemisinin], the half-life in data set [3] (DHA formed from intravenous artesunate) was 30 to 60 min.

For `CCCCCCCCCCOc1cc2c(O)c(C(=O)OCC)cnc2cc1OCC` [DQ in DMSO, Decoquinate], the IC50 was determined as 1.57 ± 0.49 nM in data set [1] (setting [5]) and 1.63 ± 0.13 nM in data set [2] (setting [5]). Further, the “minimum inhibitory concentration (MIC)” value in data set [4] is 5.12 ng/mL (≈ 0.0123 µM).

On to `C[C@H]1[C@H](OC(=O)CCC(=O)O)O[C@@H]2O[C@@]3(C)CC[C@H]4[C@H](C)CC[C@@H]1[C@@]24OO3` [artesunate], for which the half-life result in data set [3] (intravenous artesunate, parent AS) is recorded as “less than 15 min”.
